This note sets out measurements from patent US20190290656A1, “PT(IV) PRODRUGS” (YISSUM RESEARCH DEVELOPMENT COMPANY OF THE HEBREW …, priority 2015, published 2019).

For data set [1], the system named is A498 cells. As to the kind of experiment: MTT cytotoxicity assay, A498. The format is cell-based, human. The following applies: A498, 72 h exposure, read-out: IC50 (median growth inhibitory concentration). The method in brief:
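Platinum(IV) complexes from fresh DMSO stocks, final 0.5% DMSO in medium; cisplatin and oxaliplatin dissolved fresh in 0.9% NaCl. A2780, cisplatin-resistant A2780cisR and A498 cells tested by MTT in triplicate cultures.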
In general terms: Tetrazolium dyes change colour on reduction, which living cells bring about.

The subject of data set [2] is PC3 cells. The data set is described as follows: MTT cytotoxicity assay, PC3. It is filed as cell-based, human. The following applies: PC3, 72 h exposure, read-out: IC50 (median growth inhibitory concentration). The protocol: (§1) Cisplatin (CDDP) and oxaliplatin (OXP) were dissolved just before the experiment in a 0.9% NaCl solution.
(§2) Human prostate adenocarcinoma (PC3) cells were obtained from European Collection of Cell Cultures (ECACC, Salisbury, UK). Human ovarian cancer cell lines A2780 and its cisplatin resistant variant, A2780cisR, were kindly provided by Prof.
(§3) Triplicate cultures were established for each treatment.

In data set [3] the test system is A549 cells. As to the kind of experiment: MTT cytotoxicity assay, A549. The format is cell-based, human. The following applies: A549, 72 h exposure, MTT; read-out: IC50 (median growth inhibitory concentration). The protocol:
as §1, §2, §3

The test system of data set [4] is Histone deacetylase (HDAC). As to the kind of experiment: Histone deacetylase assay (Fluor-de-Lys) in MCF-7 cells. The following applies: MCF-7, 24 h, IC50 concentrations. The format is cell-based, human. The method in brief:
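MCF-7 cells exposed 24 h to increasing compound concentrations; HDAC activity measured with Fluor-de-Lys cellular fluorometric kit (ex 360/em 460 nm), also in nuclear extracts from treated cells. IC50 taken for inhibition of cellular HDAC activity.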

Data set [5] can be described thus: Cyclic voltammetric measurements. The following applies: cyclic voltammetry. It is filed as physicochemical. The protocol:
Finally, units 1a and 2a (Scheme 4) were used for the formation of a peptide bond, to afford 3a. DMSO turned out to be a good solvent for this reaction, although DMF also afforded good results. ^1H NMR assignments for 1a, 2a, and 3a (Scheme 4) are summarized in Table 4. Cylic voltammetric measurements (CV) were performed on complex 3a and 3b finding Ep values of −0.462 and −0.058 V. The first reduction peak was assigned to the reduction of the cisplatin-derivative portion of the dinuclear complex, because of similarity with the values reported for similar complexes. The less negative reduction peak was assigned to the Pt-Phenantroline metal center, because of similarity to the values reported for the bis axial phenylbutyrato Pt(IV) complex Pt56MeSS(PhB)2.

Data set [6] relates to PSN-1 cells. As to the kind of experiment: Mitochondrial membrane potential (Mito-ID), PSN-1. The format is cell-based, human. The following applies: 12 h of incubation. How it is done: Mitochondrial membrane potential (ΔΨ). ΔΨ was assayed using the Mito-ID Membrane Potential Kit according to the manufacturer's instructions (Enzo Life Sciences, Farmingdale, N.Y.). Briefly, 2008 and PSN1 cells were seeded onto 96-well microplates at 5.10^4 cells/well. After 24 h, cells were treated with tested compounds for 6, 12 and 24 h. The mitochondrial depolarizing agent, carbonyl cyanide 3-chlorophenylhydrazone (CCCP) was employed as positive control. An equal volume of cationic dye loading solution was added to each well and cell plates were incubated for additional 30 min at 37° C. Plates were read at excitation/emission wavelengths 490 and 590 nm using a fluorescence microplate reader (Fluoroskan Ascent FL, Labsystem, Finland).
In addition, it is interesting to note that treatment of 2008 and PSN-1 cells with 3a and 3b determined a significant time-dependent increase in the number of cells with depolarized mitochondria (data not shown). In particular, after 12 h of incubation, 3a elicited an increase of about 39% of PSN-1 cells with depolarized mitochondrial potential FIG. 12B). Again, the reference compound [Pt(DACH)(56Phen)] was effective in hampering cellular mitochondrial membrane potential in both tested cancer cell lines.

Turning to `[NH2][Pt]([NH2])([Cl])[Cl]` [CDDP, Cisplatin, reference compound], the IC50 was 17.5 ± 1.21 µM in data set [1], 2.25 ± 0.82 µM in data set [2] and 8.35 ± 0.87 µM in data set [3]. In data set [4], the “effect on HDAC activity (in words)” value is given as “not effective in modifying HDAC activity”.
Turning to “c,c,t,t,c,c-[(DACH)(56Phen)(PhBu)Pt(μ-OOC—(CH2)2—CONH(CH2)3COO)—Pt(DCA)(NH3)2 (Cl2)](TFA)2 [Compound 3a]”, in data set [5], the “Ep, first reduction peak (cisplatin-derivative portion)” value is on record as −0.462 V and the “Ep, less negative reduction peak (Pt-Phenantroline metal center)” value is −0.058 V. In addition, the “increase of cells with depolarized mitochondrial potential” value in data set [6] is “about 39%”.
